In US20230390273A1, “4-PHENYL-TETRAHYDROPYRIDINE DERIVATIVES FOR TREATING HEARING DISEASES” (CILCARE DEV, priority 2021, published 2023):
Counter-ions that a name gives are not always drawn. Like-named read-outs stand apart in the source and are kept apart here.

Legend:
Assay type in all cases: in vivo, male Wistar rats
[1] = Plasma and inner ear fluid exposure after single trans-tympanic injection in thermoreversible hydrogel composition (Example 4); settings: for concentration at 7 days / concentration at 168 h / concentration at 1 h / concentration at 24 h: male, Wistar, other: trans-tympanic injection; for concentration at 7 days: inner ear fluid, read-out: Concentrations in the inner ear fluid at 7 days post injection; for concentration at 7 days / High concentrations rapidly reached in the inner ear fluid / High concentrations rapidly reached in the IEF (molar): trans-tympanic injection; for concentration at 1 h: T0 + 1 hour; for concentration at 24 h: T0 + 24 hours; for High concentrations rapidly reached in the inner ear fluid: summary
Method: Composition 4P and composition 4X as described in example 2 were administered to male Wistar rats (5 animals per active agent and timepoint), as described below.
At time T0, 30 μL of composition 4P were administered to 15 rats, in a single ear via trans-tympanic injection. The dose of paliroden fumarate that has been administered is thus of 300 μg in one ear of each rat.
At time T0, 30 μL of composition 4X were administered to 15 other rats, in a single ear via trans-tympanic injection. The dose of xaliproden hydrochloride that has been administered is thus of 150 μg in one ear of each rat.
For the 15 rats that have received composition 4P and for the 15 rats that have received composition 4X, plasmatic and inner ear expositions were determined via blood and cochlea terminal sampling in order to achieve lithium-heparin plasma and inner ear fluid preparation, at T+1 hour, T+24 hours and T+168 hours. Bioanalytical methods were validated in both matrices (lithium heparin plasma and inner ear fluid) with a range of 0.2 to 815 ng/mL for paliroden (fumarate salt) and 0.38 to 763 ng/mL for xaliproden (hydrochloride salt).

[2] = test system: synaptic ribbons in inner hair cells; assay: Ribbon synapse immunostaining and counting in cochlea, immediate treatment (Example 6); settings: 2 hours and 8 days post-noise; for Number of pre-synaptic elements CtBP2 per IHC: 25 kHz and 32 kHz; for Number of pre-synaptic elements CtBP2 per IHC / Number of colocalized ribbons per IHC: vs traumatized vehicle group; for Number of colocalized ribbons per IHC: 25 kHz, paliroden 300 μg/ear, xaliproden 150 μg/ear; for Synapse loss in the inner hair cells: regions coding high frequency sounds
Method: At T+28DAYS, after DPOAE/ABR measures, 10 cochleae (all eight (8) left cochleae and two (2) right cochleae taken randomly) per group were rapidly sampled and immediately fixed by PFA perfusion (through the round and oval windows with PFA 4% after creating a small hole at the apex) in order to performed ribbon synapse immunostaining and analysis. Cochleae were fixed for 1 hour in a 4% PFA solution and decalcified in undiluted RDO (10 mL/cochlea for a minimum of 2 hours). The membranous and sensory spiral containing the organ of Corti are dissected out as a flat surface preparation under a dissecting microscope and immunolabelled with appropriate antibodies: • Vglut3 (Vglut3-Guinea Pig IgG; #135 204, Synaptic systems and Anti-Guinea Pig IgG (H+L), #A21450; Thermo Fisher Scientific 647 nm Far-Red) to stain inner hair cell bodies (vesicular glutamate transporter). • Homer (Homer-Rabbit IgG; #GTX103278; Genetex and Anti-Rabbit IgG (H+L) #A11008 Thermo Fisher Scientific 568 nm Red) to stain dendritic proteins of auditory nerve fibers connecting to IHC (post-synaptic). • CtBP2 (CtBP2-Mouse-IgG1; #612044; BD Transduction Laboratories and Anti-Mouse IgG1, #A21121, Thermo Fisher Scientific 488 Green) to stain the ribeye protein as pre-synaptic marker in IHC. • Phalloidin (Alexa Fluor™ Plus 405 Phalloidin; #A30104; Thermo Fisher Scientific 405 Blue).
Images were acquired on a confocal microscope and the slides were analyzed to i) evaluate by visual observation the presence of OHC (outer hair cells) and IHC (inner hair cells) (based on nuclei staining with CtBP2 and HC cell body staining with phalloidin) and ii) count the number of synaptic ribbons in selected inner hair cells in cochlea regions coding sound of selected frequency (16 kHz, 25 kHz and 32 kHz).
The number of pre- (CtBP2) and post-synaptic (Homer) labeled spots was counted using Imaris software in 3 dimensions for each image. Co-localization of pre- and post-synaptic elements was defined as a distance of maximum […] between CtBP2- and Homer-labeled spots, using an in-house Matlab program to calculate the distances between CtBP2 and Homer labels from the x, y, and z coordinates.

[3] = Plasma and inner ear fluid exposure after single oral gavage (Example 1); settings: for concentration at 1 h / concentration at 2 h / concentration at 4 h / concentration at 6 h / concentration at 8 h / concentration at 24 h: male, Wistar; for concentration at 1 h: T0 + 1 hour; for concentration at 2 h: T0 + 2 hours; for concentration at 4 h: T0 + 4 hours; for concentration at 6 h: T0 + 6 hours; for concentration at 8 h: T0 + 8 hours
Method: Two compositions were prepared: composition A and composition B.
Composition A is an aqueous solution comprising: • 6 mg/mL (free base equivalent) of fumarate salt of 1-[2-(4-biphenylyl)ethyl]-4-(3-trifluoromethylphenyl)-1,2,3,6-tetrahydropyridine (=paliroden fumarate), and • 0.6% w/v of methylcellulose with respect to the total volume of the aqueous solution.
Composition B is an aqueous solution comprising: • 4 mg/mL (free base equivalent) of hydrochloride salt of 1-[2-(2-naphthyl)ethyl]-4-(3-trifluoromethylphenyl)-1,2,3,6-tetrahydropyridine (=xaliproden hydrochloride), and • 10% w/v of arabic gum with respect to the total mass of the aqueous solution.
Composition A and composition B were administered to male Wistar rats (5 animals per active agent and timepoint), as described below.
Composition A was administered to 15 male Wistar rats, once, at time TO, via oral injection by gavage, at a dose of 5 mL of composition A per kilogram of the animal, i.e. a dose of 30 mg of paliroden fumarate per kilogram of the animal. The concentration of paliroden in rats plasma and in rats inner ear fluid (IEF) was measured at 6 timepoints, 5 rats being used at each timepoint for the concentration measurements (in the plasma and optionally in the IEF). The timepoints are T0+1 hour, T0+2 hours, T0+4 hours, T0+6 hours, T0+8 hours and T0+24 hours for the concentration measurement in the rats plasma. The timepoints are T0+2 hours, T0+4 hours and T0+24 hours for the concentration measurement in the rats inner ear fluid, as part of a terminal procedure including cochlea sampling and inner ear fluids collection from both ears of the rats. Bioanalytical methods were validated in both matrices (lithium heparin plasma and inner ear fluid) with a range of 0.25 to 500 ng/mL in plasma and 0.25 to 100 ng/mL in inner ear fluids.
Composition B was administered to 15 others male Wistar rats, once, at time T0, via oral injection by gavage, at a dose of 5 mL of composition B per kilogram of the animal, i.e. a dose of 20 mg of xaliproden hydrochloride per kilogram of the animal. The concentration of xaliproden in rats plasma and in rats inner ear fluid (IEF) was measured at 6 timepoints, 5 rats being used at each timepoint for the concentrations measurements (in the plasma and optionally in the IEF). The timepoints are T0+1 hour, T0+2 hours, T0+4 hours, T0+6 hours, T0+8 hours and T0+24 hours for the concentration measurement in the rats plasma. The timepoints are T0+2 hours, T0+4 hours and T0+24 hours for the concentration measurement in the rats inner ear fluid, as part of a terminal procedure including cochlea sampling and inner ear fluids collection from both ears of the rats. Bioanalytical methods were validated in both matrices (lithium heparin plasma and inner ear fluid) with a range of 0.25 to 500 ng/mL in plasma and 0.25 to 500 ng/mL in inner ear fluids.

[4] = rat inner ear fluid, trans-tympanic 300 μg, thermoreversible hydrogel, read-out: Concentration of paliroden (fumarate salt), IEF, Mean
[5] = plasma, rat, trans-tympanic 300 μg one ear, suspension in thermoreversible hydrogel, read-out: Concentration of paliroden (fumarate salt), Plasma, Mean
[6] = rat, suspension in thermoreversible hydrogel
[7] = rat, thermoreversible hydrogel, approximate conversion
[8] = plasma, rat, single oral 30 mg/kg, read-out: Concentration of paliroden (fumarate salt), Plasma, Mean
[9] = rat inner ear fluid, single oral 30 mg/kg, read-out: Concentration of paliroden (fumarate salt), IEF, Mean
[10] = plasma, 150 μg in one ear, rat, trans-tympanic 150 μg one ear, suspension in thermoreversible hydrogel, read-out: Concentration of xaliproden (hydrochloride salt), Plasma, Mean
[11] = plasma, rat, single oral 20 mg/kg, read-out: Concentration of xaliproden (hydrochloride salt), Plasma, Mean
[12] = rat inner ear fluid, single oral 20 mg/kg, read-out: Concentration of xaliproden (hydrochloride salt), IEF, Mean

## FC(F)(F)c1cccc(C2=CCN(CCc3ccc(-c4ccccc4)cc3)CC2)c1 [paliroden (fumarate salt), 1-[2-(4-biphenylyl)ethyl]-4-(3-trifluoromethylphenyl)-1,2,3,6-tetrahydropyridine]
[1]; 300 μg, rat, thermoreversible hydrogel, approximate conversion
  concentration at 7 days: ~1200 nM
[1]; rat, thermoreversible hydrogel
  concentration at 7 days: ~600 ng/mL
[1]; 300 μg in one ear, rat inner ear fluid, trans-tympanic 300 μg, thermoreversible hydrogel, T0 + 168 hours, n = 4, read-out: Concentration of paliroden (fumarate salt), IEF, Mean
  concentration at 168 h: 687 ng/mL
[1]; [4]
  concentration at 1 h: 5490 ng/mL
  concentration at 24 h: 1370 ng/mL
[1]; plasma, 300 μg in one ear, rat, trans-tympanic 300 μg one ear, suspension in thermoreversible hydrogel, T0 + 168 hours, read-out: Concentration of paliroden (fumarate salt), Plasma, Mean
  concentration at 168 h: 0.2 ng/mL
[1]; [5]
  concentration at 1 h: 1 ng/mL
  concentration at 24 h: 0.4 ng/mL
[1]; [6]
  High concentrations rapidly reached in the inner ear fluid: approximately 5000 ng/mL
[1]; [7]
  High concentrations rapidly reached in the IEF (molar): approximately 10 μM
[2]
  Number of pre-synaptic elements CtBP2 per IHC: increase
  Number of colocalized ribbons per IHC: increase
  Synapse loss in the inner hair cells: tend to repair synapse loss
[3]; [8]
  concentration at 1 h: 35 ng/mL
  concentration at 2 h: 106 ng/mL
  concentration at 4 h: 3.1 ng/mL
  concentration at 6 h: 4.4 ng/mL
  concentration at 8 h: 1.6 ng/mL
[3]; plasma, rat, single oral 30 mg/kg, T0 + 24 hours, read-out: Concentration of paliroden (fumarate salt), Plasma, Mean
  concentration at 24 h: 1.7 ng/mL
[3]; [9]
  concentration at 2 h: 10.9 ng/mL
  concentration at 4 h: 2.6 ng/mL
[3]; rat inner ear fluid, single oral 30 mg/kg, T0 + 24 hours
  Concentration of paliroden (fumarate salt), IEF, Mean: BLQ

## FC(F)(F)c1cccc(C2=CCN(CCc3ccc4ccccc4c3)CC2)c1 [xaliproden (hydrochloride salt), 1-[2-(2-naphthyl)ethyl]-4-(3-trifluoromethylphenyl)-1,2,3,6-tetrahydropyridine]
[1]; rat, thermoreversible hydrogel
  concentration at 7 days: ~100 ng/mL
[1]; 150 μg in one ear, rat inner ear fluid, trans-tympanic 150 μg, thermoreversible hydrogel, n = 4, read-out: Concentration of xaliproden (hydrochloride salt), IEF, Mean
  concentration at 1 h: 5610 ng/mL
[1]; 150 μg in one ear, rat inner ear fluid, trans-tympanic 150 μg, thermoreversible hydrogel, read-out: Concentration of xaliproden (hydrochloride salt), IEF, Mean
  concentration at 24 h: 108 ng/mL
[1]; 150 μg in one ear, rat inner ear fluid, trans-tympanic 150 μg, thermoreversible hydrogel, T0 + 168 hours, read-out: Concentration of xaliproden (hydrochloride salt), IEF, Mean
  concentration at 168 h: 117 ng/mL
[1]; [10]
  concentration at 1 h: 4.9 ng/mL
  concentration at 24 h: 9.2 ng/mL
[1]; rat, trans-tympanic 150 μg one ear, suspension in thermoreversible hydrogel, T0 + 168 hours
  Concentration of xaliproden (hydrochloride salt), Plasma, Mean: BLQ
[1]; [6]
  High concentrations rapidly reached in the inner ear fluid: approximately 5000 ng/mL
[1]; [7]
  High concentrations rapidly reached in the IEF (molar): approximately 10 μM
[2]
  Number of pre-synaptic elements CtBP2 per IHC: increase
  Number of colocalized ribbons per IHC: increase
  Synapse loss in the inner hair cells: tend to repair synapse loss
[3]; [11]
  concentration at 1 h: 44.1 ng/mL
  concentration at 2 h: 58 ng/mL
  concentration at 4 h: 25.1 ng/mL
  concentration at 6 h: 28.4 ng/mL
  concentration at 8 h: 23.4 ng/mL
[3]; plasma, rat, single oral 20 mg/kg, T0 + 24 hours, read-out: Concentration of xaliproden (hydrochloride salt), Plasma, Mean
  concentration at 24 h: 44.1 ng/mL
[3]; [12]
  concentration at 2 h: 19.4 ng/mL
  concentration at 4 h: 21.7 ng/mL
[3]; rat inner ear fluid, single oral 20 mg/kg, T0 + 24 hours, read-out: Concentration of xaliproden (hydrochloride salt), IEF, Mean
  concentration at 24 h: 16 ng/mL
